Measured values reported in PubChem BioAssay (NCI).
“And” between values parts separate entries of the source, which are not always exact repeats. Equal values may be shown once.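 Following 48 hours of exposure in 96-well plates, responses at five concentrations were used to interpolate endpoints linearly. GI50 is the concentration that inhibits growth by half. At the TGI there is no net growth.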

Assays:
Experiment in all cases: NCI-60 cell line screen, 48 h
RPMI-8226 leukemia = test system: RPMI-8226 leukemia
NCI-H23 lung = test system: NCI-H23 lung
HOP-62 NSCLC = test system: HOP-62 NSCLC
SW-620 colon = test system: SW-620 colon
OVCAR-4 ovarian = test system: OVCAR-4 ovarian
OVCAR-8 ovarian = test system: OVCAR-8 ovarian
MOLT-4 leukemia = test system: MOLT-4 leukemia
MALME-3M melanoma = test system: MALME-3M melanoma
NCI/ADR-RES ovarian = test system: NCI/ADR-RES ovarian
UACC-62 melanoma = test system: UACC-62 melanoma

Structure (SMILES) | TGI (RPMI-8226 leukemia) | TGI (NCI-H23 lung) | TGI (HOP-62 NSCLC) | TGI (SW-620 colon) | TGI (OVCAR-4 ovarian) | TGI (OVCAR-8 ovarian) | TGI (MOLT-4 leukemia) | TGI (MALME-3M melanoma) | GI50 (RPMI-8226 leukemia) | GI50 (NCI-H23 lung) | GI50 (HOP-62 NSCLC) | GI50 (NCI/ADR-RES ovarian) | TGI (NCI/ADR-RES ovarian) | GI50 (SW-620 colon) | GI50 (OVCAR-8 ovarian) | GI50 (MOLT-4 leukemia) | GI50 (MALME-3M melanoma) | GI50 (UACC-62 melanoma) | TGI (UACC-62 melanoma) | GI50 (OVCAR-4 ovarian) [µM]
CSCCOC(=O)C(=[N+]=[N-])c1ccc([N+](=O)[O-])cc1 | > 100 µM | > 100 µM | > 100 µM | > 100 µM | > 100 µM | > 100 µM | > 100 µM | > 100 µM |  |  |  |  |  |  |  |  |  |  |  | 
CC(=O)Oc1cc2c(OC(C)=O)c(-c3c(C)cc4c(C(C)C)c(OC(C)=O)c(OC(C)=O)cc4c3OC(C)=O)c(C)cc2c(C(C)C)c1OC(C)=O | 14 µM and 15.4 µM and 20.4 µM | 9.63 µM and 9.93 µM and 19.1 µM | 18.8 µM and 11.7 µM and 24.1 µM | 43.7 µM and 9.61 µM and 22.5 µM | 32 µM and > 69.6 µM and > 84.2 µM | 19.1 µM and 17.6 µM and > 57.6 µM | 14.9 µM and > 100 µM and 21.2 µM | 13.8 µM and 13.7 µM and 23.7 µM | 5.36 µM and 5.79 µM and 7.94 µM | 5.06 µM and 5.46 µM and 8.84 µM | 6.67 µM and 5.17 µM and 8.71 µM | 7.87 µM and 8.95 µM and 20 µM | 33.1 µM and 32.7 µM and > 55.3 µM | 19.6 µM and 4.74 µM and 9.38 µM | 6.44 µM and 5.89 µM and 11.8 µM | 4.48 µM and 23.6 µM and 6.76 µM | 5.49 µM and 5.36 µM and 9.03 µM | 1.03 µM and 4.38 µM and 5.54 µM | 2.2 µM and 8.65 µM and 11.7 µM | 
OC1C2CCC1C1C3C=CC(C3)C21 (stereo unspecified) | > 100 µM | > 100 µM | > 100 µM | > 100 µM | > 100 µM | > 100 µM | > 100 µM | > 100 µM |  |  |  |  |  |  |  |  |  |  | > 100 µM | 
O=C(NCc1ccncc1)C12CC3CC(C1)CC(c1ccc(Cl)cc1)(C3)C2 | 71.7 µM | 32.7 µM | 27.2 µM | 28.5 µM | 32.8 µM |  | 27.2 µM | 27.4 µM | 7.59 µM | 14.4 µM | 14 µM | 17.2 µM | 87.8 µM | 13.7 µM |  | 8.15 µM | 13.3 µM | 5.02 µM | 18.7 µM | 10.9
CC(=O)C1(N=Nc2ccc(S(N)(=O)=O)cc2)CCOC1=O (stereo unspecified) |  | > 100 µM | > 100 µM | > 100 µM | > 100 µM | > 100 µM |  | > 100 µM |  |  |  |  | > 100 µM |  |  |  |  |  | > 100 µM | 
CN(C)CCCNC(=O)c1cncnc1Nc1ccc(OCc2cccc(F)c2)c(Cl)c1 |  | 3.28 µM | 3.48 µM | 3.32 µM | 4.36 µM |  | 3.4 µM | 3.02 µM |  | 1.74 µM | 1.75 µM | 1.89 µM | 3.77 µM | 1.85 µM |  | 1.67 µM | 1.64 µM | 1.82 µM | 3.22 µM | 1.83
COc1cnc2c(c1)C(=O)c1c-2n(CCCNC(C)C)c(=O)c2cc(F)ccc12 | 0.951 µM | 0.676 µM | 0.427 µM | 1.33 µM | 1.7 µM | 1.28 µM | 0.267 µM | 0.937 µM | 0.154 µM | 0.176 µM | 0.107 µM | 0.234 µM | 1.81 µM | 0.122 µM | 0.141 µM | 0.0362 µM | 0.197 µM | 0.271 µM | 1.27 µM | 0.301
O=c1c2ccccc2c2ccccc2c(=O)n1Cc1ccc2c(c1)OCO2 | > 67.4 µM | > 71.8 µM | > 100 µM | > 100 µM | > 100 µM | > 100 µM | > 50.6 µM | > 100 µM |  |  |  |  | > 75.7 µM |  |  |  |  |  | > 100 µM | 
CCC[CH2][Sn]1([CH2]CCC)[O]C(=O)c2ccc(C)cc2[O]1 | 0.76 µM | 1.76 µM | 3.88 µM | 0.4 µM | 2.43 µM | 2.1 µM | 0.621 µM | 1.44 µM | 0.21 µM | 0.472 µM | 2.16 µM |  |  | 0.174 µM | 0.818 µM | 0.222 µM | 0.327 µM | 0.437 µM | 1.57 µM | 1.11
C=CN(C)S(C)(=O)=O | > 100 µM |  | > 100 µM | > 100 µM | > 100 µM | > 100 µM | > 100 µM | > 100 µM | > 100 µM |  | > 100 µM | > 100 µM | > 100 µM | > 100 µM | > 100 µM | > 100 µM | > 100 µM | > 100 µM | > 100 µM | > 100
O=C(NO)c1ccc(Cn2c(=O)n(-c3ccccc3F)c(=O)c3ccccc32)cc1 | 18.9 µM |  |  | 4.37 µM | 12.9 µM | 5.11 µM | > 100 µM | 3.16 µM | 1.19 µM |  |  | 2.54 µM | 43 µM | 1.59 µM | 1.05 µM | 2.34 µM | 0.892 µM | 1.24 µM | 3.02 µM | 1.9
C[n+]1ccc(-c2c3nc(c(-c4cc[n+](C)cc4)c4ccc([n-]4)c(-c4cc[n+](C)cc4)c4nc(c(-c5cc[n+](C)cc5)c5ccc2[n-]5)C=C4)C=C3)cc1.[I-].[Zn+2] | > 100 µM | 59.2 µM | 44.2 µM | 45.7 µM | 10.4 µM | 61.1 µM | > 100 µM | 39.8 µM | 32.1 µM | 26.8 µM | 19.9 µM |  |  | 24.1 µM | 23.6 µM | 28.4 µM | 18.3 µM | 27.5 µM | > 100 µM | 2.43
CC1OC(OC2C(CO)OC(O[C@H]3CC[C@@]4(C)C(=CC[C@H]5[C@@H]6C[C@@H]7O[C@]8(CC[C@@H](C)CN8)[C@@H](C)[C@@H]7[C@@]6(C)CC[C@@H]54)C3)C(O)C2O)C(O)C(O)C1O (stereo partly specified) | > 100 µM | > 100 µM | > 100 µM | > 100 µM | > 100 µM | > 100 µM | > 100 µM | > 100 µM |  |  |  |  |  |  |  |  |  |  | > 100 µM | 
CC(C)(C)OC(=O)NC(CO)c1cccc(OCc2ccccc2)c1 (stereo unspecified) | > 100 µM | > 100 µM | > 100 µM | > 100 µM | > 100 µM | > 100 µM | > 100 µM | > 100 µM |  |  |  |  |  |  |  |  |  |  | > 100 µM | 
CC[C@@H]1C[C@H]2CC3c4[nH]c5ccc(O)cc5c4CCN(C2)C31 | > 100 µM | > 100 µM | > 100 µM | > 100 µM |  | > 100 µM | > 100 µM | > 100 µM |  |  |  |  |  |  |  |  |  |  | > 100 µM | 
O=c1oc(=O)c2oc3ccccc3oc1=2 |  | > 100 µM | > 100 µM | > 100 µM | > 100 µM | > 100 µM | > 100 µM | > 100 µM |  |  |  |  |  |  |  |  |  |  | > 100 µM | 
O=C1CC(O)(c2ccccc2)C(c2ccccc2)=C1c1ccccc1 (stereo unspecified) | 57.7 µM | > 100 µM | > 100 µM | > 100 µM | > 100 µM | > 100 µM | 81.5 µM | > 100 µM |  |  |  |  |  |  |  |  |  |  | > 100 µM | 
